Source: publication PMC5282955, “Fatty acid binding profile of the liver X receptor α” (Journal of Lipid Research, 2017)

Assays:
Assay type in all cases: binding
[1] = target: T1, LXRα (Homo sapiens, UniProt Q13133); experiment: intrinsic aromatic fluorescence quenching (positive control), CD; LXRE reporter activation
T1 construct: gene NR1H3
T1 sequence (Q13133 1-447): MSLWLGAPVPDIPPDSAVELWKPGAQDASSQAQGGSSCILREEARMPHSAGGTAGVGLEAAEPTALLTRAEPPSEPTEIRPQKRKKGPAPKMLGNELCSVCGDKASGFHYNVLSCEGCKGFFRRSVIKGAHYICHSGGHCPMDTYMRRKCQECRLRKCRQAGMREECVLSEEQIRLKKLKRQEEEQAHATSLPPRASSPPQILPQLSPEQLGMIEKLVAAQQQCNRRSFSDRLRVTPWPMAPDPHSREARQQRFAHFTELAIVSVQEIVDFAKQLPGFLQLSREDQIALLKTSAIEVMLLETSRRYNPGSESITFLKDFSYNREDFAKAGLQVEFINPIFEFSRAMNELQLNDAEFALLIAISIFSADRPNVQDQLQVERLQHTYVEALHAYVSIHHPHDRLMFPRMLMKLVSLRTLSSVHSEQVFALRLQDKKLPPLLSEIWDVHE

[2] = target: T1, LXRα; experiment: intrinsic aromatic fluorescence quenching; also displacement of BODIPY C16-CoA (Ki […]); CD
[3] = target: T1, LXRα; experiment: as above; remark: listed apart in the source
[4] = target: T1, LXRα; experiment: displacement of LXRα-bound BODIPY C16-CoA; CD change
[5] = target: T1, LXRα; experiment: intrinsic aromatic fluorescence quenching; displacement Ki […]; LXRE reporter activation
[6] = target: T1, LXRα; experiment: intrinsic aromatic fluorescence quenching; also displacement of BODIPY C16-CoA (Ki […])
[7] = target: T1, LXRα; experiment: as above; remark: listed apart in the source

`C[C@H](CCCC(C)(C)O)[C@H]1CC[C@H]2[C@@H]3CC=C4C[C@@H](O)CC[C@]4(C)[C@H]3CC[C@]12C` [25-HC, 25-hydroxycholesterol] was tested, and the “intrinsic aromatic fluorescence quenching (positive control), CD; LXRE reporter” value [1] was “Binding with T-0901317 and 25-hydroxycholesterol (positive controls) yielded binding curves that were sharply saturable”.

In the case of `CCCCCCCC(=O)SCCNC(=O)CCNC(=O)[C@H](O)C(C)(C)COP(=O)(O)OP(=O)(O)OC[C@H]1O[C@@H](n2cnc3c(N)ncnc32)[C@H](O)[C@@H]1OP(=O)(O)O` [C8:0-CoA, Octanoyl-CoA], the Kd [2] is reported as 15 ± 5 nM.

`CCCCCCCCCC(=O)O` [C10:0, Decanoic acid] showed a Kd [3] of 15 ± 6 nM.

`CCCCCCCCCC(=O)SCCNC(=O)CCNC(=O)[C@H](O)C(C)(C)COP(=O)(O)OP(=O)(O)OC[C@H]1O[C@@H](n2cnc3c(N)ncnc32)[C@H](O)[C@@H]1OP(=O)(O)O` [C10:0-CoA, Decanoyl-CoA] gave a Ki [4] of 7 ± 3 nM.

Compound `CCCCCCCCCCCC(=O)O` [C12:0, Lauric acid] has a Kd [5] of 11 ± 4 nM.

Compound `CCCCCCCCCCCC(=O)SCCNC(=O)CCNC(=O)[C@H](O)C(C)(C)COP(=O)(O)OP(=O)(O)OC[C@H]1O[C@@H](n2cnc3c(N)ncnc32)[C@H](O)[C@@H]1OP(=O)(O)O` [C12:0-CoA, Lauroyl-CoA] has a Kd [6] of 18 ± 8 nM.

`CCCCCCCCCCCCCCCC(=O)SCCNC(=O)CCNC(=O)[C@H](O)C(C)(C)COP(=O)(O)OP(=O)(O)OC[C@H]1O[C@@H](n2cnc3c(N)ncnc32)[C@H](O)[C@@H]1OP(=O)(O)O` [C16:0-CoA, Palmitoyl-CoA] gave a Kd [7] of 14 ± 7 nM.
